Experimental findings from US12110293B2, “Substituted triazolo quinoxaline derivatives” (GRÜNENTHAL GMBH, priority 2018, dated 2024) are described below.

This assay concerns the target T1, glucocorticoid receptor (Homo sapiens, UniProt P04150).
T1 construct: expressed in transfected cells
T1 sequence (P04150 524-758 limits assumed): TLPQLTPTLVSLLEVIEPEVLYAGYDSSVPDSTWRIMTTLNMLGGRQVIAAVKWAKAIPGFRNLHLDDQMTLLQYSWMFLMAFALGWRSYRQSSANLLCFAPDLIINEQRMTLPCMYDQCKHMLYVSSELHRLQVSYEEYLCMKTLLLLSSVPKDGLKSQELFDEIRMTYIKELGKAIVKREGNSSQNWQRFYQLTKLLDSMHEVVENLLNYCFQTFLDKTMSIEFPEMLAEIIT
Nature of the assay: Agonistic mode of action on the glucocorticoid receptor (CHO-Gal4/GR luciferase reporter cell line). Particulars: range class observed in the agonistic assay or the antagonistic assay (CHO-Gal4/GR reporter cells); table does not say which mode applies per example. The assay is classed as cell-based. The method, boiled down: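 CHO cells stably carrying GAL4 DBD–GR ligand-binding-domain fusion and GAL4-UAS firefly luciferase reporter, 5000 cells/well grown 24 h, then compounds added in Opti-MEM at 8 half-log concentrations from 10 μM to 0.003 μM (0.5% DMSO), quadruplicates. Agonist-induced luminescence read on FLIPR Tetra; EC50 calculated.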
On the technique in general: A reporter such as luciferase makes a cellular process visible.

For `COc1cc2c(c(F)c1-c1cc(F)cc3c(C)c[nH]c13)-n1c(C)nnc1C(C)(C)N2` [Example 251, 9-Fluoro-8-(5-fluoro-3-methyl-1H-indol-7-yl)-7-methoxy-1,4,4-trimethyl-5H-[1,2,4]triazolo[4,3-a]quinoxaline], the IC50 or EC50 (agonist or antagonist mode not specified) lay within 0.1 to 1 µM. The result for `Cc1nnc2n1-c1c(cc(F)c(-c3cc(F)cc4c3ccn4CCO)c1C(F)(F)F)NC2(C)C` [Example 447, 2-[6-Fluoro-4-[7-fluoro-1,4,4-trimethyl-9-(trifluoromethyl)-5H-[1,2,4]triazolo[4,3-a]quinoxalin-8-yl]-1H-indol-1-yl]-ethanol] reads 0.1 to 1 µM; that for `CCS(=O)(=O)n1ccc2c(-c3c(OC)cc4c(c3C(F)(F)F)-n3c(C)nnc3C(C)(C)N4)cc(F)cc21` [Example 369, 8-[1-(Ethylsulfonyl)-6-fluoro-1H-indol-4-yl]-7-methoxy-1,4,4-trimethyl-9-(trifluoromethyl)-5H-[1,2,4]triazolo[4,3-a]quinoxaline], 0.1 to 1 µM. With `Cc1nnc2n1-c1c(cc(F)c(-c3cccc4c(C5CC5)c[nH]c34)c1C(F)(F)F)NC2(C)C` [Example 87, 8-(3-cyclopropyl-1H-indol-7-yl)-7-fluoro-1,4,4-trimethyl-9-(trifluoromethyl)-4,5-dihydro-[1,2,4]triazolo[4,3-a]quinoxaline], the IC50 or EC50 (agonist or antagonist mode not specified) was in the range of 0.1 to 1 µM. The value for `COc1cc2c(c(F)c1-c1cccc3[nH]c(C(F)(F)F)cc13)-n1c(C)nnc1C(C)(C)N2` [Example 257, 9-Fluoro-7-methoxy-1,4,4-trimethyl-8-[2-(trifluoromethyl)-1H-indol-4-yl]-5H-[1,2,4]triazolo[4,3-a]quinoxaline] was 0.1 to 1 µM; that for `Cc1c[nH]c2c(-c3ccc4c(c3C(F)(F)F)-n3c(C)nnc3C(C)(C)N4)cccc12` [Example 503, 1,4,4-Trimethyl-8-(3-methyl-1H-indol-7-yl)-9-(trifluoromethyl)-5H-[1,2,4]triazolo[4,3-a]quinoxaline] was 0.1 to 1 µM; that for `COCCn1ccc2c(-c3c(OC)cc4c(c3F)-n3c(C)nnc3C(C)(C)N4)cc(F)cc21` [Example 353, 9-Fluoro-8-[6-fluoro-1-(2-methoxy-ethyl)-1H-indol-4-yl]-7-methoxy-1,4,4-trimethyl-5H-[1,2,4]triazolo [4,3-a]quinoxaline] was 1 to 15 µM.

Consider `COc1c(-c2cc(F)cc3c(C)c[nH]c23)c(F)cc2c1-n1c(C)nnc1C(C)(C)N2` [Example 249, 7-Fluoro-8-(5-fluoro-3-methyl-1H-indol-7-yl)-9-methoxy-1,4,4-trimethyl-5H-[1,2,4]triazolo[4,3-a]quinoxaline], for which the IC50 or EC50 (agonist or antagonist mode not specified) was below 0.1 µM.

Compound `CCc1nnc2n1-c1c(cc(F)c(-c3cc(F)cc4c(C#N)c[nH]c34)c1F)NC2(C)C` [Example 15, 7-(1-ethyl-7,9-difluoro-4,4-dimethyl-4,5-dihydro-[1,2,4]triazolo[4,3-a]quinoxalin-8-yl)-5-fluoro-1H-indole-3-carbonitrile] returned an IC50 or EC50 (agonist or antagonist mode not specified) of 1 to 15 µM. Compound `Cc1nnc2n1-c1c(cc(OC(F)F)c(-c3cc(F)cc4c3ccn4S(C)(=O)=O)c1F)NC2(C)C` [Example 268, 7-(Difluoro-methoxy)-9-fluoro-8-(6-fluoro-1-methylsulfonyl-1H-indol-4-yl)-1,4,4-trimethyl-5H-[1,2,4]triazolo[4,3-a]quinoxaline] displayed an IC50 or EC50 (agonist or antagonist mode not specified) of 1 to 15 µM. The value for `Cc1nnc2n1-c1c(cc(F)c(-c3cc(F)cc4c3ccn4C)c1C(F)(F)F)NC2(C)C` [Example 532, 7-Fluoro-8-(6-fluoro-1-methyl-1H-indol-4-yl)-1,4,4-trimethyl-9-(trifluoromethyl)-5H-[1,2,4] triazolo[4,3-a]quinoxaline] was below 0.1 µM.
